In patent US9085555B2, “Complement pathway modulators and uses thereof” (priority 2011, dated 2015):

Molecular target: Factor D (Homo sapiens (Human), UniProt P00746)
Assay: biochemical
Type: biochemical
Conditions: read-out: IC50

Factor D, sequence (P00746 26-253): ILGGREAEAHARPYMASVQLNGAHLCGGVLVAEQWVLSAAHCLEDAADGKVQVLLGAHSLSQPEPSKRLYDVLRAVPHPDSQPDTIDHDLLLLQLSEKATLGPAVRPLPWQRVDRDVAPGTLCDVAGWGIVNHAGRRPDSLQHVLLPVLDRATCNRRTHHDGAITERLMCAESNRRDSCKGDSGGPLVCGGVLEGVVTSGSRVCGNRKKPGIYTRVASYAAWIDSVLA

Structure (SMILES) | IC50 [nM]
COc1cc(F)c(F)c(CNC(=O)[C@@H]2SCCN2C(=O)Nc2cn(C(N)=O)c3ccccc23)c1 [Example 235, (S)-Thiazolidine-2,3-dicarboxylic acid 3-[(1-carbamoyl-1H-indol-3-yl)-amide] 2-(2,3-difluoro-5-methoxy-benzylamide)] | 80
COC[C@@H](NC(=O)[C@@H]1C[C@H]2C[C@H]2N1C(=O)Nc1cn(C(N)=O)c2ccccc12)c1cccc(Cl)c1F [Example 236, (1R,3S,5R)-2-Aza-bicyclo[3.1.0]hexane-2,3-dicarboxylic acid 2-[(1-carbamoyl-1H-indol-3-yl)-amide] 3-{[(S)-1-(3-chloro-2-fluoro-phenyl)-2-methoxy-ethyl]-amide}] | 8
NC(=O)n1cc(NC(=O)N2C[C@H](F)C[C@H]2C(=O)NCc2cncc(Cl)c2)c2ccccc21 [Example 237, (2S,4R)-4-Fluoro-pyrrolidine-1,2-dicarboxylic acid 1-[(1-carbamoyl-1H-indol-3-yl)-amide] 2-[(5-chloro-pyridin-3-ylmethyl)-amide]] | 70
CCc1cccc(NC(=O)[C@@H]2CCCN2C(=O)Nc2cn(C(N)=O)c3ccccc23)n1 [Example 238, (S)-Pyrrolidine-1,2-dicarboxylic acid 1-[(1-carbamoyl-1H-indol-3-yl)-amide] 2-[(6-ethyl-pyridin-2-yl)-amide]] | 650
C[C@@]1(F)C[C@@H](C(=O)N[C@H](CO)c2cccc(Cl)c2F)N(C(=O)Nc2cn(C(N)=O)c3ccccc23)C1 [Example 239, (2S,4R)-4-Fluoro-4-methyl-pyrrolidine-1,2-dicarboxylic acid 1-[(1-carbamoyl-1H-indol-3-yl)-amide] 2-{[(S)-1-(3-chloro-2-fluoro-phenyl)-2-hydroxy-ethyl]-amide}] | 52
CNC(=O)c1cc(Cl)c(F)c(CNC(=O)[C@@H]2C[C@@H](F)CN2C(=O)Nc2cn(C(N)=O)c3ccccc23)c1 [Example 240, (2S,4R)-4-Fluoro-pyrrolidine-1,2-dicarboxylic acid 1-[(1-carbamoyl-1H-indol-3-yl)-amide] 2-(3-chloro-2-fluoro-5-methylcarbamoyl-benzylamide)] | 141
NC(=O)n1cc(NC(=O)N2C[C@](F)(CF)C[C@H]2C(=O)NCc2cccc(Cl)c2F)c2ccccc21 [Example 241, (2S,4S)-4-Fluoro-4-fluoromethyl-pyrrolidine-1,2-dicarboxylic acid 1-[(1-carbamoyl-1H-indol-3-yl)-amide] 2-(3-chloro-2-fluoro-benzylamide)] | 250
NC(=O)n1cc(NC(=O)N2C3CC3C[C@H]2C(=O)NCc2ncccc2F)c2ccccc21 (stereo partly drawn) [Example 242] | 200
NC(=O)n1cc(NC(=O)N2C[C@@](F)(CN3CCOCC3)C[C@H]2C(=O)NCc2cccc(Cl)c2F)c2ccccc21 [Example 243, (2S,4S)-4-Fluoro-4-morpholin-4-ylmethyl-pyrrolidine-1,2-dicarboxylic acid 1-[(1-carbamoyl-1H-indol-3-yl)-amide] 2-(3-chloro-2-fluoro-benzylamide)] | 200
COC(=O)c1cc(Cl)c(F)c(CNC(=O)[C@@H]2C[C@@H](F)CN2C(=O)Nc2cn(C(N)=O)c3ccccc23)c1 [Example 244, 3-({[(2S,4R)-1-(1-Carbamoyl-1H-indol-3-ylcarbamoyl)-4-fluoro-pyrrolidine-2-carbonyl]-amino}-methyl)-5-chloro-4-fluoro-benzoic acid methyl ester] | 17
COC[C@@H](NC(=O)[C@@H]1[C@H]2C[C@H]2CN1C(=O)Nc1cn(C(N)=O)c2ccccc12)c1cccc(Cl)c1F [Example 245, (1S,2S,5R)-3-Aza-bicyclo[3.1.0]hexane-2,3-dicarboxylic acid 3-[(1-carbamoyl-1H-indol-3-yl)-amide] 2-{[(S)-1-(3-chloro-2-fluoro-phenyl)-2-methoxy-ethyl]-amide}] | 1050
NC(=O)n1cc(NC(=O)N2C[C@H](F)C[C@H]2C(=O)NC(C(=O)O)c2cccc(Cl)c2)c2ccccc21 (stereo partly drawn) [Example 246, {[(2S,4R)-1-(1-Carbamoyl-1H-indol-3-ylcarbamoyl)-4-fluoro-pyrrolidine-2-carbonyl]-amino}-(3-chloro-phenyl)-acetic acid] | 2000
NC(=O)n1cc(NC(=O)N2[C@@H]3C[C@@H]3C[C@H]2C(=O)Nc2cncc(Cl)c2)c2ccccc21 [Example 247, (1R,3S,5R)-2-Aza-bicyclo[3.1.0]hexane-2,3-dicarboxylic acid 2-[(1-carbamoyl-1H-indol-3-yl)-amide] 3-[(5-chloro-pyridin-3-yl)-amide]] | 400
CN(C)C[C@@H](NC(=O)[C@@H]1C[C@@H](F)CN1C(=O)Nc1cn(C(N)=O)c2ccccc12)c1cccc(Cl)c1F [Example 248, (2S,4R)-4-Fluoro-pyrrolidine-1,2-dicarboxylic acid 1-[(1-carbamoyl-1H-indol-3-yl)-amide] 2-{[(S)-1-(3-chloro-2-fluoro-phenyl)-2-dimethylamino-ethyl]-amide}] | 119
NC(=O)n1cc(NC(=O)N2C[C@H](F)C[C@H]2C(=O)NCc2cc(C(=O)N3CCOCC3)cc(Cl)c2F)c2ccccc21 [Example 250, (2S,4R)-4-Fluoro-pyrrolidine-1,2-dicarboxylic acid 1-[(1-carbamoyl-1H-indol-3-yl)-amide] 2-[3-chloro-2-fluoro-5-(morpholine-4-carbonyl)-benzylamide]] | 549
CCN(CC)c1cc(Cl)c(F)c(CNC(=O)[C@@H]2C[C@@H](F)CN2C(=O)Nc2cn(C(N)=O)c3ccccc23)c1 [Example 252, (2S,4R)-4-Fluoro-pyrrolidine-1,2-dicarboxylic acid 1-[(1-carbamoyl-1H-indol-3-yl)-amide] 2-(3-chloro-5-diethylamino-2-fluoro-benzylamide)] | 114
NC(=O)n1cc(NC(=O)N2CCS[C@H]2C(=O)N[C@H](CO)c2cccc(Cl)c2F)c2ccccc21 [Example 253, (S)-Thiazolidine-2,3-dicarboxylic acid 3-[(1-carbamoyl-1H-indol-3-yl)-amide] 2-{[(S)-1-(3-chloro-2-fluoro-phenyl)-2-hydroxy-ethyl]-amide}] | 1070
COC1CN(C(=O)c2cc(Cl)c(F)c(CNC(=O)[C@@H]3C[C@@H](F)CN3C(=O)Nc3cn(C(N)=O)c4ccccc34)c2)C1 [Example 255, (2S,4R)-4-Fluoro-pyrrolidine-1,2-dicarboxylic acid 1-[(1-carbamoyl-1H-indol-3-yl)-amide] 2-[3-chloro-2-fluoro-5-(3-methoxy-azetidine-1-carbonyl)-benzylamide]] | 434
N#C[C@@H]1C[C@@H](C(=O)Nc2cccc(OC(F)(F)F)c2)N(C(=O)Nc2cn(C(N)=O)c3ccccc23)C1 [Example 256, (2S,4R)-4-cyano-pyrrolidine-1,2-dicarboxylic acid 1-[(1-carbamoyl-1H-indol-3-yl)-amide]2-[(3-trifluoromethoxy-phenyl)-amide]] | 4000
NC(=O)n1cc(NC(=O)N2CC[C@H](O)[C@H]2C(=O)NCc2cccc(Cl)c2)c2ccccc21 [Example 257, (2S,3S)-3-Hydroxy-pyrrolidine-1,2-dicarboxylic acid 1-[(1-carbamoyl-1H-indol-3-yl)-amide] 2-(3-chloro-benzylamide)] | 3950
NC(=O)n1cc(NC(=O)N2[C@@H]3C[C@@H]3C[C@H]2C(=O)NCc2ccccc2)c2ccccc21 [Example 258, (1R,3S,5R)-2-Aza-bicyclo[3.1.0]hexane-2,3-dicarboxylic acid 3-benzylamide 2-[(1-carbamoyl-1H-indol-3-yl)-amide]] | 78
CC(=O)n1cc(NC(=O)N2C[C@@H](CO)C[C@H]2C(=O)NCc2cccc(Cl)c2F)c2ccccc21 [Example 260, (2S,4S)-4-Hydroxymethyl-pyrrolidine-1,2-dicarboxylic acid 1-[(1-acetyl-1H-indol-3-yl)-amide] 2-(3-chloro-2-fluoro-benzylamide)] | 200
NC(=O)n1cc(NC(=O)N2C3CC3C[C@H]2C(=O)NCc2cccc(C(F)(F)F)c2F)c2ccccc21 (stereo partly drawn) [Example 261, (1R,3S,5R)-2-Aza-bicyclo[3.1.0]hexane-2,3-dicarboxylic acid 2-[(1-carbamoyl-1H-indol-3-yl)-amide] 3-(2-fluoro-3-trifluoromethyl-benzylamide)] | 75
COc1ccc(F)c(F)c1CNC(=O)[C@@H]1SCCN1C(=O)Nc1cn(C(N)=O)c2ccccc12 [Example 262, (S)-Thiazolidine-2,3-dicarboxylic acid 3-[(1-carbamoyl-1H-indol-3-yl)-amide] 2-(2,3-difluoro-6-methoxy-benzylamide)] | 200
NC(=O)n1cc(NC(=O)N2CCS[C@H]2C(=O)NCc2cnc(Cl)s2)c2ccccc21 [Example 263, (S)-Thiazolidine-2,3-dicarboxylic acid 3-[(1-carbamoyl-1H-indol-3-yl)-amide] 2-[(2-chloro-thiazol-5-ylmethyl)-amide]] | 400
NC(=O)n1cc(NC(=O)N2CCS[C@H]2C(=O)NCc2cccc(Cl)c2F)c2cc(F)ccc21 [Example 264, (S)-Thiazolidine-2,3-dicarboxylic acid 3-[(1-carbamoyl-5-fluoro-1H-indol-3-yl)-amide] 2-(3-chloro-2-fluoro-benzylamide)] | 10
NC(=O)n1cc(NC(=O)N2CCS[C@H]2C(=O)Nc2cccc(OC(F)(F)F)c2)c2ccccc21 [Example 267, (S)-Thiazolidine-2,3-dicarboxylic acid 3-[(1-carbamoyl-1H-indol-3-yl)-amide] 2-[(3-trifluoromethoxy-phenyl)-amide]] | 83
C=CCOc1ccc2c(c1)c(NC(=O)N1[C@@H]3C[C@@H]3C[C@H]1C(=O)NCc1cccc(Cl)c1F)cn2C(N)=O [Example 268, (1R,3S,5R)-2-Aza-bicyclo[3.1.0]hexane-2,3-dicarboxylic acid 2-[(5-allyloxy-1-carbamoyl-1H-indol-3-yl)-amide] 3-(3-chloro-2-fluoro-benzylamide)] | 8
Cc1ccc2c(NC(=O)N3CCC[C@H]3C(=O)Nc3cccc(OC(F)(F)F)c3)cn(C(N)=O)c2c1 [Example 269] | 1600
CNC(=O)n1cc(NC(=O)N2[C@@H]3C[C@@H]3C[C@H]2C(=O)N[C@H](COC)c2cccc(Cl)c2F)c2ccccc21 [Example 270, (1R,3S,5R)-2-Aza-bicyclo[3.1.0]hexane-2,3-dicarboxylic acid 3-{[(S)-1-(3-chloro-2-fluoro-phenyl)-2-methoxy-ethyl]-amide} 2-[(1-methylcarbamoyl-1H-indol-3-yl)-amide]] | 54
